Assay [1] deals with T1, panel of 442 kinases (Homo sapiens, UniProt P24723).
T1 construct: purchased KINOMEscan
The class given is binding. Particulars: Compound Concentration 10 µM. The text has this:
(§1) We assessed the selectivity of members of this scaffold using the KINOMEscan methodology across a near comprehensive panel of 442 kinases [[18,27]].

Assay [2] addresses T2, panel of 442 kinases (Homo sapiens, UniProt P42685).
T2 construct: purchased KINOMEscan
The assay is classed as binding. Particulars: Compound Concentration 10 µM.
Text: as §1

T1 sequence (P24723 whole entry): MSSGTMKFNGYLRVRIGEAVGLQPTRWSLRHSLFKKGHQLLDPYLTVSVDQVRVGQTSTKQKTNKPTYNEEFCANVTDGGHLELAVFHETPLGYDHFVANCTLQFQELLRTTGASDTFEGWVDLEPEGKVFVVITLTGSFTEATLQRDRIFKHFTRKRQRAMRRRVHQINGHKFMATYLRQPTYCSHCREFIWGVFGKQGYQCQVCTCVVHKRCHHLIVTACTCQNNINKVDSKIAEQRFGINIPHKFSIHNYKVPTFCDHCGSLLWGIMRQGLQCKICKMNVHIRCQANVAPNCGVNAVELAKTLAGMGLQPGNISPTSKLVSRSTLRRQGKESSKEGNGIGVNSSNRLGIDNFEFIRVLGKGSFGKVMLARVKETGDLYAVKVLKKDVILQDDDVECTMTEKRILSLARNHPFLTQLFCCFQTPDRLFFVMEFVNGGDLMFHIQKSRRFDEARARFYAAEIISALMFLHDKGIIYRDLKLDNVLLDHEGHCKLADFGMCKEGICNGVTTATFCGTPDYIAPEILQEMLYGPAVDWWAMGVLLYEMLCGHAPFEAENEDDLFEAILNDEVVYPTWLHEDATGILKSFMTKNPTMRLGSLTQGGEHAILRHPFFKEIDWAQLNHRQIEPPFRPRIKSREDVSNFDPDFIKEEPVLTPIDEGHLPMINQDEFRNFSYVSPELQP
T2 sequence (P42685 whole entry): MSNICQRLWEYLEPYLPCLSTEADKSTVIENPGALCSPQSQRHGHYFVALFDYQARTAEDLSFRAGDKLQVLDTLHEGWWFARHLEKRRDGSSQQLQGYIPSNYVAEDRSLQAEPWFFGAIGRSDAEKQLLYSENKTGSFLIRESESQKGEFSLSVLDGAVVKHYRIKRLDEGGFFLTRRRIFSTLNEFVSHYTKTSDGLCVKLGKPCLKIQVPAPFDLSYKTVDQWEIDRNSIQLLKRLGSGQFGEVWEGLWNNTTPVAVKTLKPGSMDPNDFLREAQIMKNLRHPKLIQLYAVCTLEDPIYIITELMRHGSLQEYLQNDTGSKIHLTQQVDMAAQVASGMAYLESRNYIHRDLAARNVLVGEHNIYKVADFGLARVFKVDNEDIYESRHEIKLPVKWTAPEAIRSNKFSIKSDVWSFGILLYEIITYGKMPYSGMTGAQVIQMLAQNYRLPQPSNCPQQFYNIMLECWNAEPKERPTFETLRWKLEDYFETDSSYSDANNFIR

As to `COc1cc(C(=O)N2CCC(N3CCN(C)CC3)CC2)ccc1Nc1ncc2c(n1)N(C1CCCC1)c1ccccc1C(=O)N2C` [Compound 25, 11-cyclopentyl-2-((2-methoxy-4-(4-(4-methylpiperazin-1-yl)piperidine-1-carbonyl)phenyl)amino)-5-methyl-5H-benzo[e]pyrimido[5,4-b][1,4]diazepin-6(11H)-one], at panel of 442 kinases [1], the “KINOMEscan: PRKCH” value amounted to 100. Moreover, the “KINOMEscan: FRK” value at panel of 442 kinases [2] came to 24.
In the case of `COc1cc(C(=O)N2CCC(N3CCN(C)CC3)CC2)ccc1Nc1ncc2c(n1)N1CCc3cccc(c31)C(=O)N2C` [Compound 24], the “KINOMEscan: PRKCH” value at panel of 442 kinases [1] is listed as 84. For the same compound, the “KINOMEscan: FRK” value at panel of 442 kinases [2] was determined as 56.
For `COc1cc(C(=O)N2CCC(N3CCN(C)CC3)CC2)ccc1Nc1ncc2c(n1)N(C)c1ccccc1C(=O)N2C` [15 (LRRK2-IN-1)], the “KINOMEscan: PRKCH” value at panel of 442 kinases [1] stood at 100. For the same compound, the “KINOMEscan: FRK” value on panel of 442 kinases [2] is 34.
With `CCOc1cc(C(=O)N2CCC(N3CCN(C)CC3)CC2)ccc1Nc1ncc2c(n1)N(C1CCCC1)c1ccccc1C(=O)N2C` [Compound 26], the “KINOMEscan: PRKCH” value on panel of 442 kinases [1] came out at 100. For the same compound, on panel of 442 kinases [2], the “KINOMEscan: FRK” value came to 87.

The values above are taken from paper PMC3914206.
